The target of assay [1] is T1, PfENT1WT (Plasmodium falciparum, UniProt Q8IDM6).
T1 construct: 10xHis (N); made in house; host or cells: Sf9 insect cells (baculovirus)
The assay is described as follows: biochemical. The assay is classed as binding. As to the method: (§1) For the in vitro binding assay, Sf9 cells were solubilized in lysis buffer containing 2% (w/v) n-dodecyl-β-D-maltopyranoside (DDM, Anatrace) and protease inhibitor cocktail (0.8 μM aprotinin, 2 μM pepstatin, and 5 μg/ml leupeptin) at 4 °C for 2 h. The soluble supernatant was collected via centrifugation and incubated with Ni-NTA resin (QIAGEN) at 4 °C for 1 h. The resin was washed and eluted using lysis buffer containing 0.05% (w/v) DDM and 30 mM/300 mM imidazole. The protein was further purified by size-exclusion chromatography (Superdex 200 Increase 10/300; GE Healthcare) in buffer containing 25 mM MES (pH 6.0), 150 mM NaCl, and 0.05% (w/v) DDM. The peak fractions were pooled and concentrated to 10~50 μM for the nucleoside-binding assay.
(§2) The binding affinity between wild-type and mutant PfENT1 with nucleosides and GSK4 was measured using a Micro-Cal ITC200 (Malvern). All proteins were prepared in 25 mM MES (pH 6.0), 150 mM NaCl, and 0.05% (w/v) DDM. Nucleosides (5~10 mM) and GSK4 (100-200 μM) dissolved in the same buffer were titrated against 20–50 μM PfENT1 proteins at 25 °C. PEAQ-ITC analysis software (MicroCal) was employed to analyze the data. All titrations were repeated three times.

In assay [2] the target is T2, PfENT1 mutant W53A (Plasmodium falciparum, UniProt Q8IDM6, W53A).
T2 construct: 10xHis (N); made in house; host or cells: Sf9 insect cells (baculovirus)
T2 sequence (Q8IDM6 whole entry W53A): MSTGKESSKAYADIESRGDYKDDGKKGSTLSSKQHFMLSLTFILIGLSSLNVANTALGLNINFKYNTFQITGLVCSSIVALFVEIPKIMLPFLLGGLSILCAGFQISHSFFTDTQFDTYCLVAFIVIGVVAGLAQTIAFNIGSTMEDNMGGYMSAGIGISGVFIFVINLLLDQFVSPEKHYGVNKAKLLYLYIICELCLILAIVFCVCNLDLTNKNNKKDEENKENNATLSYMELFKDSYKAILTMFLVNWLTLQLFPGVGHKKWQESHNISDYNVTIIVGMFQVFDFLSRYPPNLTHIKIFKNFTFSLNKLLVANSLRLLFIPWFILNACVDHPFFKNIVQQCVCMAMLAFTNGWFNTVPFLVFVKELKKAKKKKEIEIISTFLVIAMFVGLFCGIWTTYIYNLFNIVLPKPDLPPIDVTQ
The assay is described as follows: ITC binding to PfENT1 mutant W53A. The procedure: as §1, §2

The target in assay [3] is T3, PfENT1 mutant D287A (Plasmodium falciparum, UniProt Q8IDM6, D287A).
T3 construct: 10xHis (N); made in house; host or cells: Sf9 insect cells (baculovirus)
T3 sequence (Q8IDM6 1-422 D287A): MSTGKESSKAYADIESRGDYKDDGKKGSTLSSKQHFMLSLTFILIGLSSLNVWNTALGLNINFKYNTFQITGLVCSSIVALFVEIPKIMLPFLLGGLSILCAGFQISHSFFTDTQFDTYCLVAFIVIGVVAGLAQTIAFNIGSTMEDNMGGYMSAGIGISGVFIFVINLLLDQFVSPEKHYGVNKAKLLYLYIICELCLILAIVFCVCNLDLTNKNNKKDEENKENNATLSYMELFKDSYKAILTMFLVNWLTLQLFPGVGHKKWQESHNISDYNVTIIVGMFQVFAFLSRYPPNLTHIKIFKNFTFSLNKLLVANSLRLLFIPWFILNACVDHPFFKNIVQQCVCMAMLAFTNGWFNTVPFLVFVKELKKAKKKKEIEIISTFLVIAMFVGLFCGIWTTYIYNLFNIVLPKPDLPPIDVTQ
Nature of the assay: ITC binding to PfENT1 mutant D287A. The note with it: Fig. 3c. The procedure:
as §1, §2

Values joined by “and” are separate entries in the source; they are usually repeats but may differ in a detail not shown here. Equal entries are not always repeated. Where two headings read alike, the source gives them in different places.

T1 sequence (Q8IDM6 whole entry): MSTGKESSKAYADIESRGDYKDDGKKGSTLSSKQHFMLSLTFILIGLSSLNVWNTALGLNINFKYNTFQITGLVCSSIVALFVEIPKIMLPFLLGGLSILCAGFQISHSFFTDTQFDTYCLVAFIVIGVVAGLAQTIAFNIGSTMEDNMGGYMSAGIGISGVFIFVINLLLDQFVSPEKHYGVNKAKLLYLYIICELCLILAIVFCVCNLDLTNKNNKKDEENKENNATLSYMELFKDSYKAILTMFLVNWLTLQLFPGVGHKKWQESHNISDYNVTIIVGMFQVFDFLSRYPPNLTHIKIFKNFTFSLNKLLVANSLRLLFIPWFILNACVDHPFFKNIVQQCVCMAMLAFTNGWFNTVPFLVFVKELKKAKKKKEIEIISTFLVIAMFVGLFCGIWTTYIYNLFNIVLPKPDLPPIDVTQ

Broadly, the Kd is the equilibrium constant for the complex coming apart. Consider `OC[C@H]1O[C@@H](n2cnc3c(O)ncnc32)[C@H](O)[C@@H]1O` [Inosine, inosine], for which the dissociation constant (Kd) in assay [1] (Kd, Mean and Mean ± SD, source data Figure 1a) was 64.7 µM; in assay [1] (Kd, N=3 (individual experiments), source data Figure 1a), 52.3 µM and 64.2 µM and 77.7 µM; in assay [1] (binding affinity (Kd), ITC, 25 °C, pH 6.0, mean ± SD (n = 3), Fig. 1a and text), 64.7 ± 12.7 µM; in assay [1] (read-out: Kd, Mean and Mean ± SD, source data Figure 1a), 64.7 ± 12.7 µM; in assay [2] (Kd, Mean and Mean ± SD, source data Figure 3c, construct W53A) it was 1830 µM; in assay [2] (Kd, N=3 (individual experiments), source data Figure 3c, construct W53A) it was 1900 µM and 1940 µM and 1650 µM. The same molecule gave a Kd in assay [2] (binding affinity (Kd), ITC, Fig. 3c, mutant W53A, mean ± SD (n = 3)) of 1830 ± 157 µM. In addition, the “weaker binding than the wild type” value in assay [2] (inosine binding, W53A versus wild type) came to 30 fold. Moreover, the “binding affinity (Kd)” value in assay [3] is given as “completely lost inosine binding”.

The record behind these values is publication PMC10050424, “Structural basis of the substrate recognition and inhibition mechanism of Plasmodium falciparum nucleoside transporter PfENT1” (Nature Communications, 2023).
